Experimental data published in US20230399361A1, “MACROCYCLIC PEPTIDES” (UNIVERSITY OF NOTRE DAME DU LAC, priority 2022, published 2023).
“Also recorded” adds a separate entry of the source. *1 amine or outer side, *2 acyl side, *3 side chain or, on linkers, in order; H or OH if unused. Where a SMILES comes first, the peptide text is derived from it. Primed or numbered codes have the meaning given here. [ ]: non-standard residue; d: D form. The star is where a group is joined. aIle′ = Ile with backbone amide N-amino (hydrazide NNH2), CC[C@H](C)[C@@H](C(=O)[*:2])N(N)[*:1]; aVal = Val with backbone amide N-amino (hydrazide NNH2), CC(C)[C@@H](C(=O)[*:2])N(N)[*:1]; X2 = NN([C@@H](Cc1ccc(O)cc1)C(=O)[*:2])[*:1]; X1 = CC[C@H](C)[C@@H](C(=O)[*:2])N(N)[*:1]; N(NH2)LysNH2 = NCCCC[C@@H](C(N)=O)N(N)*; X3 = CC(C)[C@@H](C(=O)[*:2])N(N)[*:1]

Assays:
[1] = in vitro; settings: human, serum, intact peptide in 25% human serum
Experimental: (§1) Human Serum Stability Assay. The stability of NAPs in 25% human serum (MilliporeSigma) was assessed by HPLC. The reaction was started by adding NAPs at a final concentration of 500 μM in pre-warmed serum. The mixture was incubated at 37° C. for 24 h. A 100 μL aliquot of the reaction mixture was taken out at 0, 1, 4, and 24 h and was mixed with an equal volume of 20% trichloroacetic acid and incubated at 4° C. for 15 min to precipitate serum proteins. After centrifugation at 12,000 rpm for 10 min, the supernatant was collected and mixed with an internal standard (1 mg/mL Cbz-Tyr-OH dissolved in MeCN) and stored at −20° C. Samples were then analyzed by LC-MS, and the percentage of peptide remaining was calculated by integrating peaks.

[2] = target: T1, Aβ42 (Homo sapiens, UniProt P05067); test: ThT fluorescence assay with Aβ42; format: biochemical
T1 construct: Incubation of synthetic, full-length Aβ42 (40 μM)
Text: A peptidomimetic approach to tau inhibition offers prospects for achieving selectivity over other amyloids rich in f structure. As a preliminary test, we selected our best-performing aggregation-inhibitory tau mimic, 12, and determined its effect on Aβ42 aggregation in vitro (FIG. 6). […] We similarly observed no effect on aggregation kinetics at any of the concentrations tested.

[3] = 24 h, 500 μM
Experimental: as §1

[4] = test system: HEK293 cells stably expressing tau-RD (LM)-YFP
Experimental: MTT cell viability assays were carried out on both HEK293 cells stably expressing tau-RD (LM)-YFP and SH-SY5Y cells. Cells were cultured in the DMEM/F12 complete medium containing 10% FBS, 1% penicillin/streptomycin, and 1% Glutamax in a 75 cm^2 cell culture flask under 5% CO2 at 37° C. Cell viability was determined using the MTT reduction assay. Briefly, 15,000 cells/well were plated in a 96-well tissue culture plate and were allowed to incubate overnight in a CO2 incubator. The medium was aspirated and the NAP inhibitor prepared in complete medium was added at a given final concentration. The plate was then allowed to incubate for additional 48 h in a CO2 incubator, and the medium was aspirated again and replaced with 0.5 mg/mL MTT prepared in complete medium and incubated for additional 3 h. The medium was then replaced with DMSO to dissolve formazan crystals, and the absorbance was measured at 570 nm using a Synergy H1 microplate reader. Each data set was collected from technical replicates on at least 2 different days.

[5] = Self-aggregation of peptides alone by ThT fluorescence; format: physicochemical; settings: incubated alone in aq. NaOAc buffer, 48 h
Text: NAP Tau Mimics Inhibit Tau Fibrilization In Vitro. We chose thioflavin T (ThT), an amyloid specific fluorescent dye that binds to β-sheet assemblies, to first evaluate the effect of NAPs on recombinant tau aggregation. For these studies, we expressed and purified full-length tau featuring a P301L mutation frequently observed in patients with frontotemporal dementia and Parkinsonism linked to chromosome 17 (FTDP-17). This missense mutation leads to local structure destabilization around the amyloid-forming region resulting in faster aggregation. Recombinant tauP301L aggregated in the presence of equimolar heparin sulfate (t1/2=6.5±0.4 h) starting with a very short 0.5 h lag phase, followed by a 24 h exponential growth phase. […] Compounds 2 and 4 are mono- and diaminated hexapeptides derived from the R2 PHF6* aggregation-prone sequence, whereas compounds 5, 6, 12, and 13 are all derived from the R3 PHF6 sequence. Several other NAPs had no effect on endpoint ThT fluorescence or lacked consistent inhibition across repeated experiments. […] NaOAc buffer, as evidenced by intense ThT fluorescence after 48 h (FIG. 1B).
Design and synthesis of aggregation-resistant backbone-aminated derivatives of mxyl-AD. The data above support the hypothesis that mxyl-AD mimetic macrocycle can engage in native-like hydrophobic cross-b interactions as well as edge-to-edge H-bonds along the fibril axis. We next sought to employ mxyl-AD as a template for the design of tau seeding inhibitors that could potentially cap fibril growth and block propagation. This required us to incorporate a chemical modification onto mxyl-AD that would preclude its ability to self-assemble without disrupting its capacity to adopt the conformation required to bind tau. We therefore designed two backbone N-amino peptide (NAP) derivatives of our tau mimic, mxyl-NAP1 and mxyl-NAP2 (Scheme 1). Each of these analogues features a backbone amide substitution that precludes canonical b-sheet H-bonding along one edge of the macrocycle, while leaving the other edge intact to engage the tau protein. […] Both mxyl-NAP1 and mxyl-NAP2, which feature a single backbone N-amino group within the amyloidogenic PHF6 module, were prepared on solid support starting from Fmoc-protected N-amino dipeptides.

[6] = target: T2, tauP301L (Homo sapiens, UniProt P10636, P618L); test: Cellular seeding assay, monomeric tauP301L co-incubated with inhibitor, HEK293 tau-RD(LM)-YFP biosensor cells; format: cell-based; settings: 0.19 μM monomeric tauP301L + heparin co-incubated 4 days, cells 48 h
T2 construct: we expressed and purified full-length tau featuring a P301L mutation; His6 (N); made in house; host or cells: E. coli BL21 (DE3)
Text: Di-N-aminated Hexapeptides Block the Cellular Transmission of Tau Fibrils. […] This mode of propagation is important for the spread of NFTs, neuropil threads, and plaque-associated neurites—all of which contribute to the progression of Alzheimer's disease. To test whether NAP inhibitors are able to block the seeding activity of recombinant tauP301L, we employed HEK293 biosensor cells that stably express a tau-yellow fluorescent protein fusion [tau-RD(LM)-YFP]. When we treated these cells with preformed heparin-induced fibrils of tauP301L, we observed a large number of intracellular tau aggregates, as indicated by punctate fluorescence after 48 h.
Mxyl-NAPs inhibit the seeding capacity of full-length tau in a biosensor cell assay. The ability to halt the prion-like spread of tau fibrils from diseased to healthy cells using designed molecules remains a considerable challenge. […] To test whether mxyl-NAPs could block this seeding activity, we treated HEK293 biosensor cells that express a tau yellow fluorescent protein fusion (tau-RD[LM]-YFP) with tauP301L incubated in the presence or absence of inhibitors. Heparin-induced fibrils of tauP301L grown in the absence of mxyl-NAPs led to strong intracellular FRET signal resulting from endogenous tau-RD(LM)-YFP aggregation. Quantitative brightness threshold-based analysis of puncta within the biosensor cells provided a positive baseline for seed-competent recombinant tau fibrils.
Cellular Seeding Assay. The tauP301L was diluted to a final concentration of […] in an aggregation buffer containing 100 mM sodium acetate, 10 μM heparin, and 2 mM DTT, pH: 7.4. The protein was incubated in a microcentrifuge tube for 4 days at 37° C. with a shaking speed of 100 rpm. Control vials included those wherein (1) buffer was added in place of tauP301L and (2) buffer was added in place of heparin.
For each experiment, cells were plated at a density of 15,000 cells/well in 96-well tissue culture plates.
For seeding by monomeric tau, freshly purified recombinant tauP301L was co-incubated with heparin and NAPs for 4 days in an aggregation buffer at 37° C. (see the above section). Following incubation, the reaction mixture was diluted in the low-serum Opti-MEM medium, mixed with Lipofectamine 2000 in a 20:1 ratio (complex/Lipofectamine) and allowed to incubate for an additional 20 min at rt. A mixture of 0.19 μM tau+1.9 μM or 0.009 μM inhibitors (final concentrations) was added to the cells. Cells were incubated for an additional 48 h before taking measurements on a BioTek Cytation 5 cell imager and a microplate reader. 10×10 pictures/well were taken at 20× magnification under an FITC channel, and the punctate counting was carried out using built-in software. […] Every experiment included control wells (no tau, no heparin, and no NAP). All data plots were generated with SigmaPlot. Error bars shown are standard deviation from technical replicates.

T1 sequence (P05067 672-713 limits assumed): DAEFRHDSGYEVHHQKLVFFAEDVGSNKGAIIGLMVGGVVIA
T2 sequence (P10636 1-383 isoform P10636-6 P243L): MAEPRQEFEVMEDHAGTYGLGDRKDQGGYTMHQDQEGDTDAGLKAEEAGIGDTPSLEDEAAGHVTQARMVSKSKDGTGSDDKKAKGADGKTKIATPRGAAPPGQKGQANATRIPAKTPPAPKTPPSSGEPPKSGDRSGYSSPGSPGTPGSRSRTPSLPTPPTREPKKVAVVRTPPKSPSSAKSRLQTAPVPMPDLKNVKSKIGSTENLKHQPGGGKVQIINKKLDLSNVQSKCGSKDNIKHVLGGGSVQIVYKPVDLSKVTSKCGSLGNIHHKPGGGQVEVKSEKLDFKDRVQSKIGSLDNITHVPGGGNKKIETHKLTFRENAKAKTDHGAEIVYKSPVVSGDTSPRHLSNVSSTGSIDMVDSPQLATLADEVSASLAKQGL

| Compound | remaining at 24 h, 500 μM [1] | effect on Aβ42 aggregation (ThT) ([2]; 40 μM Aβ42, up to 4-fold molar excess (160 μM)) | effect on Aβ42 aggregation kinetics ([2]; any of the concentrations tested) | selectivity for tau over Aβ42 ([2]; in vitro) | intact peptide in 25% human serum [3] | toxicity to HEK293 biosensor cells in seeding experiments [4] | self-aggregation, ThT fluorescence of peptide alone [5] | seeding capacity of tauP301L (intracellular puncta) ([6]; 0.009 μM inhibitor) | seeding capacity of tauP301L (intracellular puncta) ([6]; 1.9 μM inhibitor) |
| --- | --- | --- | --- | --- | --- | --- | --- | --- | --- |
| CC[C@H](C)[C@@H](C(=O)N[C@H](C(=O)N(N)[C@@H](Cc1ccc(O)cc1)C(=O)N[C@@H](CCCCN)C(N)=O)C(C)C)N(N)C(=O)[C@H](CCC(N)=O)NC(=O)[C@@H](NC(C)=O)C(C)C [Compound 12, Ac-Val-Gln-aIle-Val-aTyr-Lys-NH2] (Ac-VQ[X1]V[X2]K-NH2) | > 83% | no inhibitory effect | no effect | in vitro selectivity for tau over Aβ42 | > 80% | did not result in detectable toxicity | no such fluorescence | less pronounced | significantly reduced seeding capacity; also recorded: sufficient to prevent seeding |
| CC[C@H](C)[C@H](NC(=O)[C@H](CCC(N)=O)NC(=O)[C@@H](NC(C)=O)C(C)C)C(=O)N(N)[C@H](C(=O)N[C@@H](Cc1ccc(O)cc1)C(=O)N(N)[C@@H](CCCCN)C(N)=O)C(C)C [Compound 13, Ac-Val-Gln-Ile-aVal-Tyr-aLys-NH2] (Ac-VQI[X3]Y-{N(NH2)LysNH2}) | > 83% |  |  |  | > 80% | did not result in detectable toxicity | no such fluorescence | less pronounced | significantly reduced seeding capacity; also recorded: sufficient to prevent seeding |
| Ac-aVal-Gln-aIle-Ile-Asn-Lys-NH2 (Ac-[aVal]Q[aIle′]INK-NH2; SMILES CC[C@H](C)[C@H](NC(=O)[C@H]([C@@H](C)CC)N(N)C(=O)[C@H](CCC(N)=O)NC(=O)[C@H](C(C)C)N(N)C(C)=O)C(=O)N[C@@H](CC(N)=O)C(=O)N[C@@H](CCCCN)C(N)=O) [Compound 4] |  |  |  |  |  |  | no such fluorescence | far weaker anti-seeding activity | far weaker anti-seeding activity; also recorded: ineffective |
